Reference: patent US4276286A, “Process for decreasing ammonia concentration in domestic animals or fowls” (Kumiai Chemical Industry Co., Ltd., priority 1975, dated 1981)

How the values were obtained:
[1] = test system: ammonia (NH3-N) in contents of the colon; experiment: Ammonia concentration in contents of the colon of chickens (modified Fujii-Okuda method); assay type: in vivo, chicken; conditions: after 8 weeks, control 155
Protocol: Chickens just after hatching were divided into 5 groups, each consisting of 10 chickens. Diets containing 2.5 ppm or 5.00 ppm of multhiomycin were given to two groups, respectively, and diets containing 2.5 ppm or 5.00 ppm of thiopeptin were given to other two groups (comparative groups), respectively. A medicament-free diet was given to the remaining one group (control group). After 8 weeks, with respect to each group, the ammonia concentrations in the contents of the colon were determined according to a modification of the method of Fujii and Okuda, described hereinafter.
(§1) A deproteinizing solution was added to the sample to deproteinize the sample and remove coloration-inhibiting components therefrom and simultaneously deactivate enzymes for preventing formation of ammonia during standing. The supernatant was separated and a coloring solution containing phenol and a nitroprusside salt was added thereto. Then, an alkaline solution was added to the mixture to make it alkaline, and a coloring solution containing sodium hypochlorite was further added to effect oxidation and form indophenol showing a blue color. The absorbance of this color at 630 mμ was measured to determine the ammonia nitrogen concentration. This measurement method is expressed by the following reaction formula: [drawing 1]
(§2) Incidentally, the nitroprusside salt acts as a catalyst in the above reaction.

[2] = in vivo
[3] = test system: ammonia (NH3-N) in portal blood; experiment: Ammonia concentration in portal blood of pigs (modified Fujii-Okuda method); assay type: in vivo, pig; conditions: 10 ppm in diet, after 2 months; for NH3-N in portal blood: control 6.80
Protocol: as §1, §2
Young pigs just after weaning were divided into 3 groups, each consisting of 6 pigs. Diets containing 10 ppm of multhiomycin were given to one group, diets containing 10 ppm of thiopeptin as the comparative medicament were given to another group, and a medicament-free diet was given to the remaining one group (control group). After 2 months, with respect to each group, the ammonia concentrations in portal blood were determined according to the modified Fujii-Okuda method.

[4] = test system: ammonia; experiment: Ammonia concentration in the animal's body, intestine and blood or excrements (general statement); assay type: in vivo; conditions: compared with untreated animals
[5] = test system: ammonia in excrement; experiment: Ammonia concentration in excrement of chickens (Kitagawa's vacuum gas detector); assay type: in vivo, chicken
Source text: The tests were made on commercially available chickens for exclusive use as broilers (kind: Hubbard). 150 Chickens which were just hatched (male: 75, female: 75) were divided into 3 groups, each consisting of 50 chickens. Basal diets (containing no antibiotics, see Tables 6 and 7) were given to one group, and diets containing 2.5 ppm or 10 ppm of multhiomycin were given to the other two groups. The feed was constantly supplied to each group with water for 8 weeks from the hatching. Each group was bred in one windless cage (1.8×5.4×2.7 m, 9.7 m^2 per group), and each cage was kept warm by circulating warm water under the floor until the chickens were two weeks old. Further, the floor were covered with wood chips in a depth of about 3 cm.
About 6 or 8 weeks from the beginning of the test, the ammonia concentration in excrement was measured in each group. The ammonia concentrations in the excrement were measured with Kitagawa's vacuum gas detector and the moisture content therein was measured with the hot-air drying method whereby 2 kg weight of excrement (containing chips) was treated at 100°±2° C. for 24 hours to measure its moisture content.

[6] = Acute toxicity (general statement); assay type: in vivo; conditions: in comparison with other antibiotics
[7] = test system: mice; experiment: Acute toxicity in mice; assay type: in vivo, mouse; conditions: injection into abdominal cavity; for LD50 in words: mice, compared with multhiomycin
Protocol: Acute toxins of multhiomycin, thiopeptin and thiostrepton administered to mice, were measured by injection of each drug into the abdominal cavities of the mice.

[8] = test system: bacteria; experiment: In vitro action on bacteria; assay type: cell-based
[9] = Acidity; assay type: physicochemical
[10] = Behavior of antibiotics in soil (microbial quantitative method); conditions: 10 μg/g added to soil, room temperature
Protocol: (§3) The rise and fall in the activity of the multhiomycin excreted without absorption in the interior of the animal body was compared with the activity of other antibiotics, such as thiopeptin and thiostrepton.
To soils (collected in Kikukawa-cho, Ogasa-gun, Shizuoka-ken, Japan) which were confirmed to have no anti-antibiotic activity were respectively added multhiomycin, thiopeptin and thiostrepton, each containing 10 μg/g concentration of each antibiotic. The soils were preserved under room temperature condition, and the remaining potencies in soils of each antibiotic were measured at different time intervals according to the microbal quantitative method.

[11] = Remaining activity of antibiotics in excrement of chickens (microbial quantitative method); conditions: 10 μg/g added to chicken excrement, room temperature
Protocol: as §3
Multhiomycin, thiopeptin and thiostrepton were respectively added to the excrement of chickens bred with the feed containing no antibiotics in a concentration of 10 μg/g. The excrement was preserved under room temperature condition and the remaining potency of each antibiotic in excrement was measured at different time intervals with a microbal quantitative method.

C=C(NC(=O)c1csc(-c2nc3c(cc2O)-c2nc(cs2)C(=O)NC(C(C)O)C(=O)NC(=CC)c2nc(cs2)C(=O)NC2CC(O)C(=O)OCc4cccc5[nH]c(c(C)c45)C(=O)SCC(NC(=O)c4csc2n4)c2nc-3cs2)n1)C(N)=O (stereo not drawn) [Multhiomycin]
NH3-N in contents of colon ([1]; 2.5 ppm in diet): 60 μg/g of wet matter
NH3-N in contents of colon ([1]; 5.0 ppm in diet): 46 μg/g of wet matter
Amount remaining in internal organs or muscles, in words [2]: so little as to be not perceptible in a recognizable amount
Excretion [2]: completely excreted
NH3-N in portal blood, value in parentheses (difference from control) [3]: -3.36 µg/mL
NH3-N in portal blood [3]: 3.44 µg/mL
Ammonia in excrement of treated animals, in words [4]: very small amounts of ammonia
Ammonia concentration in excrement ([5]; 2.5 ppm in diet, 6 weeks of age, control 25.5): 9.8 ppm
Ammonia concentration in excrement ([5]; 2.5 ppm in diet, 8 weeks of age, control 29.7): 11.2 ppm
Ammonia concentration in excrement ([5]; 10 ppm in diet, 6 weeks of age, control 25.5): 9.0 ppm
Ammonia concentration in excrement ([5]; 10 ppm in diet, 8 weeks of age, control 29.7): 10.0 ppm
Acute toxicity in words [6]: low degree of acute toxicity
Acute toxicity LD50 ([7]; female mouse): > 4,000 mg/kg
Acute toxicity LD50 ([7]; male mouse): > 4,000 mg/kg
Deaths ([7]; mice, 4,000 mg/kg): did not cause a single death
Action on bacteria [8]: astonishing action on bacteria
Acidity [9]: slightly acidic

Thiopeptin
Remaining ratio in soil after 60 days [10]: 41%
Remaining amount in excrement after 5 days [11]: 52%
NH3-N in contents of colon ([1]; 2.5 ppm in diet): 120 μg/g of wet matter
NH3-N in contents of colon ([1]; 5.0 ppm in diet): 100 μg/g of wet matter
NH3-N in portal blood, value in parentheses (difference from control) [3]: -0.8 µg/mL
NH3-N in portal blood [3]: 6.00 µg/mL
Acute toxicity LD50 ([7]; female mouse): 660 mg/kg
Acute toxicity LD50 ([7]; male mouse): 780 mg/kg
LD50 in words [7]: small values of LD50

Thiostrepton
Remaining ratio in soil after 60 days [10]: 44%
Remaining amount in excrement after 5 days [11]: 43%
Acute toxicity LD50 ([7]; male mouse): 85 mg/kg
LD50 in words [7]: small values of LD50
